Laboratory results reported in patent publication US4399065A, “D-Phenylalanyl-L-prolyl-L-arginine aldehyde sulfate and process for the preparation thereof” (Patentbureau Danubia, priority 1981, dated 1983).
Several values for one entry are separate records, joined by “and”; a condition that tells them apart may be missing. Identical values can stand only once.

Assays:
[1] = system: thrombin time in the whole blood; assay: In vivo trial, rabbit: dose required to prolong thrombin time in the whole blood 1.5 to 2.5 fold; details: thrombin time in whole blood prolonged 1.5 to 2.5 fold
Text: (§1) ^a The therapeutic effect is characterized by the dose required to […]

[2] = biological target: T1, U.S. Standard Human Thrombin (Homo sapiens, UniProt P00734); assay: Antithrombin activity (thrombin time) of peptide solutions stored in isotonic salt solution, fibrinogen system; details: for Relative activity after 0 days: 10 mg/ml, 100 = fivefold relative thrombin time at 3.5 × 10^-7 M
Description: In the course of our tests the peptides were dissolved in concentrations of 10 mg/ml, stored at 5° C., and the ensuing change in antithrombin activity registered for 180 days. The potency was assayed in a system containing the following components:
0.2 ml of 0.5 percent bovine fibrinogen in a 0.9 percent solution of sodium chloride,
0.1 ml of tris(hydroxymethyl)-amino-methane hydrochloride--hydrochloric acid buffer (pH 7.2) containing the peptide solution
0.1 ml of U.S. Standard Human Thrombin (NIH, Bethesda, Md., USA), 10 Unit/ml solution.
The activity of the tripeptide aldehyde solution was arbitrarily set up as 100, if the reaction mixture induced a fivefold relative thrombin time at a final concentration of 3.5×10^-7 M (in the case of the tripeptide aldehyde sulfate at 0.175 μg/ml).

Acute toxicity in mice = type: in vivo; details: mouse, in vivo
[3] = biological target: T1, U.S. Standard Human Thrombin; assay: Antithrombin activity (thrombin time) in human plasma; type: biochemical; design: U.S. Standard Human Thrombin; purchased NIH, Bethesda, Md., USA; details: for amount required for a twofold thrombin time increase relative to the tripeptide aldehyde sulfate: human plasma; for IC (2-fold thrombin time): pH 7.2, read-out: Amount of peptide required to increase thrombin time twofold immediately following dissolution of the peptide; for Relative activity: sulfate = 100
Description: In order to simulate physiological conditions the antithrombin activity of the tripeptide aldehyde salts as well as that of the carbamic acid derivatives was tested also on human plasma in the following system:
0.2 ml of human citrate plasma,
0.1 ml of tris(hydroxymethyl)-amino-methane hydrochloride--hydrochloric acid buffer solution (pH 7.2) containing the peptide solution, and
0.1 ml of U.S. Standard Human Thrombin (NIH, Bethesda Md., USA), 10 Units/ml solution.

thrombin = details: known from Hungarian Pat. No. 169,870 / Belgian Pat. No. 880,844; cited from earlier work
[4] = Stability of peptide aldehyde salts/derivatives in aqueous solution and in solid form; type: physicochemical
[5] = system: thrombin time in the whole blood; assay: In vivo trial, dog: dose required to prolong thrombin time in the whole blood 1.5 to 2.5 fold; details: thrombin time in whole blood prolonged 1.5 to 2.5 fold
Text: as §1

[6] = system: thrombin time in the whole blood; assay: In vivo trial of the tripeptide aldehyde derivatives, summary statements; design: species or system rabbit, dog; details: for oral dose at which therapeutic effect may be achieved: species not given
Text: as §1

Solubility = type: physicochemical
[7] = Acute toxicity at intravenous infusion in the rabbit; details: in vivo
mice = assay: Acute toxicity in mice; type: in vivo; details: acute toxicity
[8] = cited from earlier work
[9] = ip, mice, i.p., read-out: LD50 i.p.
[10] = iv, mice, i.v. bolus, read-out: LD50 i.v. bolus
[11] = po, mice, p.o., read-out: LD50 p.o.

Compound	Dose required for therapeutic effect, p.o., rabbit [1] [mg/kg]	activity starting to decrease (in words) ([2]; isotonic salt solution, 5° C.)	LD50 (Acute toxicity in mice; [11]) [mg/kg]	amount required for a twofold thrombin time increase relative to the tripeptide aldehyde sulfate [3]	IC (2-fold thrombin time) [3] [µg/mL]	Dose required for therapeutic effect, p.o., dog [5] [mg/kg]	Dose required for therapeutic effect, s.c., rabbit [1] [mg/kg]	Relative activity ([3]; human citrate plasma)	Dose required for therapeutic effect, i.v. infusion, dog [5] [mg/kg/h]	Dose required for therapeutic effect, s.c., dog [5] [mg/kg]	also measured
CC(=O)O.N=C(N)NCCC[C@@H](C=O)NC(=O)[C@@H]1CCCN1C(=O)[C@H](N)Cc1ccccc1 [D-Phe-Pro-Arg-H.2 CH3 COOH, D-phenylalanyl-L-prolyl-L-arginine aldehyde acetate]	100	already after several days	960	manifold	0.065 to 0.14	100	–	–	–	–	LD50 (Acute toxicity in mice; [9]): 38 mg/kg; LD50 (Acute toxicity in mice; [10]): 9 mg/kg; thrombin inhibition (thrombin): potent thrombin inhibitors; antithrombin potency upon standing in aqueous solution [4]: varying and rapidly decreasing
N=C(NCCC[C@@H](C=O)NC(=O)[C@@H]1CCCN1C(=O)[C@H](N)Cc1ccccc1)NC(=O)O [D-Phe-Pro-Arg/COOH/-H, D-phenylalanyl-L-prolyl-N^G -carboxy-L-arginine aldehyde]	50	already after several days	1200	twofold	0.042	50	10.0	45	3.0	6.0	Relative activity after 0 days ([2]; isotonic salt solution, 5° C.): 100; oral dose at which therapeutic effect may be achieved [6]: 50 mg/kg; thrombin inhibition (thrombin): potent thrombin inhibitors; solubility (Solubility): poor solubility; potency after several days ([4]; aqueous buffer solution, after several days): significant reduction in potency; activity after several months in solid form ([4]; solid form, after several months): loss of original activity even in solid form
N=C(N)NCCC[C@@H](C=O)NC(=O)[C@@H]1CCCN1C(=O)[C@H](N)Cc1ccccc1.O=S(=O)(O)O [D-Phe-Pro-Arg-H.H2 SO4, D-Phenylalanyl-L-prolyl-L-arginine aldehyde sulfate]	25	–	> 2000	–	0.02	25	6.0	100	0.5	6.0	Dose required for therapeutic effect, i.v. infusion, rabbit [1]: 1.0 mg/kg/h; LD50 [7]: 58 mg/kg; Relative activity after 0 days ([2]; isotonic salt solution, 5° C.): 100; retaining its antithrombin activity ([2]; isotonic salt solution, 5° C.): ≥ 90 days; IC (5-fold thrombin time) ([2]; pH 7.2, read-out: final concentration inducing a fivefold relative thrombin time (activity set up as 100)): 0.35 µM and 0.175 µg/mL; stable in aqueous medium ([2]; prolonged stability trials, aqueous medium): ≥ 180 days; failed to lose activity in solid form ([2]; solid form): ≥ 6 months; antithrombin potency in vivo ([6]; in vivo): significant antithrombin potency in vivo; efficacy at intravenous and subcutaneous application ([6]; intravenous and subcutaneous, compared with heparin): in the range of that of heparin; oral dose at which therapeutic effect may be achieved [6]: 25 mg/kg; toxicity data compared with the acetate and the carbamic acid derivative (mice): more favourable than those of either the acetate or the carbamic acid derivative; LD50 (Acute toxicity in mice; [9]): 230 mg/kg; LD50 (Acute toxicity in mice; [10]): 45 mg/kg; LD50 (Acute toxicity in mice; po, oral administration, read-out: acute toxicity at oral administration): 2000 mg/kg; LD50 (Acute toxicity in mice; sc, mice, s.c., read-out: LD50 s.c.): 1800 mg/kg
N=C(N)NCCC[C@@H](C=O)NC(=O)[C@@H]1CCCN1C(=O)[C@H](N)Cc1ccccc1 [tosylate]	–	–	–	–	–	–	–	–	–	–	change of antithrombin activity compared with the acetate ([2]; isotonic salt solution, Table 1 footnote d): changing similarly to that of the acetate
N=C(N)NCCC[C@@H](C=O)NC(=O)[C@@H]1CCCN1C(=O)[C@H](N)Cc1ccccc1 [citrate]	–	already after several days	–	–	–	–	–	–	–	–	–
Heparin	–	–	–	–	–	–	5.0	19	0.5	2.0	Dose required for therapeutic effect, i.v. infusion, rabbit [1]: 0.6 mg/kg/h; activity given orally ([8]; oral): practically inactive at oral application; time until effect may be registered (in words) ([8]; primarily i.v. infusion): rapidly, within a short period of time; Amount of peptide required to increase thrombin time twofold immediately following dissolution of the peptide ([3]; human citrate plasma, pH 7.2, amount in the reaction mixture): 0.105 µg/mL
CC(=O)O.Cl.N=C(N)NCCC[C@@H](C=O)NC(=O)[C@@H]1CCCN1C(=O)[C@H](N)Cc1ccccc1 [D-Phe-Pro-Arg-H.2HCl, D-phenylalanyl-L-prolyl-L-arginine aldehyde acetate and hydrochloride]	–	–	–	manifold	0.06 to 0.13	100	–	–	–	–	activity starting to decrease after ([2]; isotonic salt solution, 5° C.): > 5 days; antithrombin potency upon standing in aqueous solution [4]: varying and rapidly decreasing
